Source: paper PMC10791743, “Selective CK1α degraders exert antiproliferative activity against a broad range of human cancer cell lines” (Nature Communications, 2024)

How the values were obtained:
Experiment in all cases: cells
Parameters in all cases: Oncolines panel cell viability, ATPlite 1Step luminescence, duplicate 9-point dose response, IC50
[1] = tested on: 786-O; details: Homo sapiens, 786-0; 72 h viability; read-out: SJ3149
Description: (§1) Cell viability assays were performed as previously described. In brief, cells were seeded in a 384-well plate at an optimized density. The starting cell number was determined after 24 h incubation by adding ATPlite 1Step (Perkin Elmer, Groningen, the Netherlands) to each well and recording luminescence on an Envision multimode reader (Perkin Elmer, Waltham, MA). After the addition of a duplicate 9-point dilution series of SJ3149, cells were incubated for another 72 h, followed by cell counting using ATPlite 1Step. The dilution series ranged from 3.2 to 31,600 nM or was diluted 100-fold for the most sensitive cell lines to ideally capture the complete dose–response curve. Percentage viability was determined at each compound concentration by relating the observed signal to a vehicle-treated control, that is, medium containing 0.4% (v/v) DMSO. Compound IC50 values were calculated by fitting a 4-parameter logistic curve to the percentage viability values using IDBS XLfit5 (IDBS, Guildford, UK). The IC50 was limited to the maximum tested compound concentration when the IC50 exceeded the maximum tested concentration. […] To evaluate the compound’s effect and potential therapeutic application across a diverse range of human cancers, we profiled SJ3149 in Oncolines® panel consisting of 115 human cancer cell lines, of which 86 were solid tumor and 29 hematologic cell lines, including MOLM-13. Effect on cell viability was monitored using ATPLite™ (Perkin Elmer), which measures intracellular ATP content as an indirect readout of cell number, like CellTiter Glo.

[2] = tested on: A-704; details: Homo sapiens, A704; 72 h viability; read-out: SJ3149
Description: as §1

[3] = tested on: BxPC-3; details: Homo sapiens, BXPC-3; 72 h viability; read-out: SJ3149
Description: as §1

[4] = tested on: C-33 A; details: Homo sapiens, C-33-A; 72 h viability; read-out: SJ3149
Description: as §1

[5] = tested on: HL-60; details: Homo sapiens, HL-60; 72 h viability; read-out: SJ3149
Description: as §1

[6] = tested on: Hs 578T; details: Homo sapiens, Hs-578T; 72 h viability; read-out: SJ3149
Description: as §1

[7] = tested on: K-562; details: Homo sapiens, K562; 72 h viability; read-out: SJ3149
Description: as §1

[8] = tested on: LS411N; details: Homo sapiens, LS-411N; 72 h viability; read-out: SJ3149
Description: as §1

[9] = tested on: NB4; details: Homo sapiens, NB-4; 72 h viability; read-out: SJ3149
Description: as §1

[10] = tested on: PC-3; details: Homo sapiens, PC-3; 72 h viability; read-out: SJ3149
Description: as §1

[11] = tested on: PF-382; details: Homo sapiens, PF-382; 72 h viability; read-out: SJ3149
Description: as §1

[12] = tested on: RPMI-7951; details: Homo sapiens, RPMI-7951; 72 h viability; read-out: SJ3149
Description: as §1

[13] = tested on: SHP-77; details: Homo sapiens, SHP77; 72 h viability; read-out: SJ3149
Description: as §1

[14] = tested on: SW837; details: Homo sapiens, SW837; 72 h viability; read-out: SJ3149
Description: as §1

[15] = tested on: SW872; details: Homo sapiens, SW872; 72 h viability; read-out: SJ3149
Description: as §1

[16] = tested on: SW948; details: Homo sapiens, SW948; 72 h viability; read-out: SJ3149
Description: as §1

[17] = tested on: TCCSUP; details: Homo sapiens, TCC-SUP; 72 h viability; read-out: SJ3149
Description: as §1

[18] = tested on: THP-1; details: Homo sapiens, THP-1; 72 h viability; read-out: SJ3149
Description: as §1

[19] = tested on: U-118 MG; details: Homo sapiens, U-118-MG; 72 h viability; read-out: SJ3149
Description: as §1

[20] = tested on: U-2 OS; details: Homo sapiens, U2OS; 72 h viability; read-out: SJ3149
Description: as §1

Measured: IC50

O=C1CCC(N2Cc3cc(Nc4noc5ccccc45)ccc3C2=O)C(=O)N1 (centres unmarked) [SJ3149]
> 31.6 µM: all assays above
